# According to US10059699B2, “Tetrahydroquinoline derivatives as bromodomain inhibitors” (GlaxoSmithKline Intellectual Property (No.2) Limited, priority 2014, dated 2018):
# Read-outs that look alike come from different tables or passages of the source. Marks after values point to notes of the source that are not given here.
# Assays:
# [1] = test system: TNFα; test: LPS induced secretion of TNFα from whole blood; type: cell-based; conditions: human whole blood, LPS 200 ng/mL, n=4; read-out: pIC50, LPS induced TNFα secretion (converted)
# Excerpt: Activation in whole blood of predominantly monocytic cells by agonists of toll-like receptors such as bacterial lipopolysaccharide (LPS) results in production of key inflammatory mediators, including TNFα. Such pathways are widely considered to be central to the pathophysiology of a range of auto-immune and inflammatory disorders.
# Human Whole Blood from 2 donors (n=2) is collected using Sodium heparin as anti-coagulent (Wockhardt cat# FP1712) (10 units of heparin/mL of blood). Compounds were prepared as [10 mM] DMSO stocks and then diluted such that the top starting concentration was [1.4 mM] followed by 8×3-fold dilutions in DMSO. Final assay concentrations start at [10 μM] for all compounds. 1 μL diluted compound was added per well in a 96-well U bottom plate. 1 μL DMSO only was added to column 10 (+ve control) and 1-((2S,4R)-2-methyl-4-(phenylamino)-6-(4-(piperidin-1-ylmethyl)phenyl)-3,4-dihydroquinolin-1(2H)-yl)ethanone (for a preparation see Compound 28, J. Med. Chem. 2014, 57, 8111-8131, 1 μL, 1.4 mM) added to column 11 (−ve control). […] 150 μL of 2×MSD Read Buffer T (stock 4×MSD Read Buffer T was diluted 50:50 with de-ionised water) was then added to each well and the plates read on the MSD Sector Imager 6000. Concentration response curves for each compound were generated from the data using internal XC50 analysis and an IC50 value was calculated.
# [2] = test system: interleukin-6 (IL-6); test: LPS induced IL-6 production mouse assay; type: in vivo; conditions: male CD1 mice; for IL-6 Cmax: LPS iv 1 hour after dosing
# Protocol: The compound was assayed for its ability to inhibit lipopolysaccharide (LPS) induced interleukin-6 (IL-6) production in mice. Male CD1 mice (Charles River Laboratories, 5 per group) received an intravenous challenge of LPS (100 μg/kg, L3192 E coli 0127:B8) 1 hour after oral administration of compound (in 1% (w/v) methylcellulose, aq 400). Serial blood samples were collected via teil vein up to 4 hours or via cardiac puncture at 6 hours (terminal sample) post oral drug administration and the serum harvested from the blood samples was frozen at −80° C. On the day of analysis, the serum was thawed to room temperature and levels of IL-6 were measured using single-spot cytokine assay plates (K152QXD) from Meso Scale Discovery (MSD, Gaithersburg, Md.). The levels of IL-6 were detected according to the manufacturer's protocol (MSD) and read on a SECTOR imager 6000 (MSD). The mean IL-6 Cmax and AUC0-t values were generated using WinNonlin Phoenix version 6.3 and the mean percent Cmax and AUC0-t IL-6 reduction following treatment with compound was calculated compared to the corresponding vehicle treated group. Levels of significance were calculated by analysis of variance (ANOVA) followed by Dunnett's multiple comparison t-test using Graphpad Prism version 5.04 (Graphpad Software, San Diego, Calif.). Statistical differences were determined as *P<0.05, **P<0.01.
# [3] = target: hERG (Homo sapiens, UniProt Q12809); test: hERG liability
# Sequence of hERG (Q12809 whole entry): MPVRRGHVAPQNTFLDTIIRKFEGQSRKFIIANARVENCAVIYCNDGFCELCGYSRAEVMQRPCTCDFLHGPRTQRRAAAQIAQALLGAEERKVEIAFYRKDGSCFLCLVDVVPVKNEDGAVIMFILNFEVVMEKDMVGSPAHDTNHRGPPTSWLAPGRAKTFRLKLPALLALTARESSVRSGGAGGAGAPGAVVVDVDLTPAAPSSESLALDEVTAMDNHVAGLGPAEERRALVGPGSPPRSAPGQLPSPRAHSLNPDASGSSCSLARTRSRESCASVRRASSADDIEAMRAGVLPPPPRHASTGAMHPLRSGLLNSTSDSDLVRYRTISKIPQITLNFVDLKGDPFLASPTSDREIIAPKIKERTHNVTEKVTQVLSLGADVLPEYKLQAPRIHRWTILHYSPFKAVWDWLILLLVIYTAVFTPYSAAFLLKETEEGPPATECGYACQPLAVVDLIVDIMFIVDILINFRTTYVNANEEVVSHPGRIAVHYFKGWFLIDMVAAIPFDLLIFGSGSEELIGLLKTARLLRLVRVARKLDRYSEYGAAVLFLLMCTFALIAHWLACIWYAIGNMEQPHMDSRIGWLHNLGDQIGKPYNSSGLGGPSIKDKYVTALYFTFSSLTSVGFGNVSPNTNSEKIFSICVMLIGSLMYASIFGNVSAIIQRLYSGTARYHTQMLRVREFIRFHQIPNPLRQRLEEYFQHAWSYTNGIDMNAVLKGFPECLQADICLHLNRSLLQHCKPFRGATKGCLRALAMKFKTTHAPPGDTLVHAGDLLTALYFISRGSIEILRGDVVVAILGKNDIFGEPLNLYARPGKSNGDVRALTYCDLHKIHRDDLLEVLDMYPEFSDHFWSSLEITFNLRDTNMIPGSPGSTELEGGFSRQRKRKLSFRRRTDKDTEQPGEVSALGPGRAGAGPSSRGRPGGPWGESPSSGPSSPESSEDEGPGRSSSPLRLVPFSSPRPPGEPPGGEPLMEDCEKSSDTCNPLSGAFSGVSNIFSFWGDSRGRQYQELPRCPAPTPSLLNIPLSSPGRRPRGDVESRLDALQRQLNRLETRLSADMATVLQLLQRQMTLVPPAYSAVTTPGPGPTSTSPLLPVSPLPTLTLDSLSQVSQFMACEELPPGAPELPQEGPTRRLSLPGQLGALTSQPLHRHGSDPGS
# [4] = test system: biphenotypic B myelomonocytic leukaemia cells (MV-4-11); test: Cancer cell line proliferation assay, MV-4-11; type: cell-based; conditions: Homo sapiens, MV4-11, MV-4-11 cells, 72 hours, CellTiter Glo, n = 3
# Protocol: The impact of the compound of Examples 7 and 14 on cancer cell proliferation was determined using patient derived NUT midline carcinoma cells (11060), multiple myeloma cells (OPM-2, DSMZ) and biphenotypic B myelomonocytic leukaemia cells (MV-4-11, ATCC) in a 72 hour proliferation assay. 11060 and OPM-2 cells were maintained in RPMI 1640 medium (Invitrogen) supplemented with 10% HI-FBS (Heat-Inactivated Fetal Bovine Serum, Hyclone) and 2 mM L-glutamine (Invitrogen) at 37° C. and an atmosphere of 5% CO2. MV-4-11 cells were maintained in IMDM media supplemented with 10% HI-FCS, 2 mM L-glutamine, 1× Non-essential amino acids (Invitrogen) and 1× sodium pyruvate (1 mM) (Invitrogen). Cells were diluted to 1.11×10^5 cells/mL and 90 μL/well plated into black sided, clear bottomed 96 well tissue culture plates (Corning), using growth media supplemented with penicillin/streptomycin (Invitrogen). Cells were incubated overnight at 37° C. and in one plate, ATP levels were measured using the CellTiter Glo assay (Promega) according to the manufacturer's instructions, to give a baseline reading (t=0). 3-fold serial dilutions of compounds ranging from 6 mM to 0.3 μM were prepared in 100% DMSO. The DMSO dilution series was diluted 20-fold in growth media before 10 μl of the resulting dilutions were added to the appropriate wells of the remaining cell plates. The final compound concentrations in the wells ranged from 30 μM to 1.5 nM in 0.5% DMSO. Cells were incubated with compounds for 72 hours before assaying for ATP content using CellTiter Glo (t=72). CellTiter Glo data from each t=72 time point was normalised to the relevant t=0 time point data, and expressed as % t=0.
smiles,measurement,setting,value
"CC(=O)N1c2ccc(C(N)=O)cc2[C@H](Nc2ncc(Cl)cn2)C[C@@H]1C [Example 14, (2S,4R)-1-acetyl-4-((5-chloropyrimidin-2-yl)amino)-2-methyl-1,2,3,4-tetrahydroquinoline-6-carboxamide]",IC50,[1],63.1 nM
same,% reduction in IL-6 AUC from vehicle,[2]; 1 mg/kg oral,49* %
same,% reduction in IL-6 Cmax from vehicle,[2]; 1 mg/kg oral,58%
same,IL-6 AUC0-t,[2]; 1 mg/kg oral,554 ng·h/mL
same,IL-6 Cmax,[2]; 1 mg/kg oral,291 ng/mL
same,% reduction in IL-6 AUC from vehicle,[2]; 3 mg/kg oral,55** %
same,% reduction in IL-6 Cmax from vehicle,[2]; 3 mg/kg oral,48%
same,IL-6 AUC0-t,[2]; 3 mg/kg oral,495 ng·h/mL
same,IL-6 Cmax,[2]; 3 mg/kg oral,357 ng/mL
same,% reduction in IL-6 AUC from vehicle,[2]; 10 mg/kg oral,48* %
same,% reduction in IL-6 Cmax from vehicle,[2]; 10 mg/kg oral,62* %
same,IL-6 AUC0-t,[2]; 10 mg/kg oral,563 ng·h/mL
same,IL-6 Cmax,[2]; 10 mg/kg oral,258 ng/mL
same,hERG liability,[3],no hERG liability
same,IC50,"[4]; full curve fit, read-out: Cellular Proliferation: pIC50 (converted)",316 nM
same,IC50,[4]; read-out: Cellular Proliferation: gpIC50 (converted),251 nM
